Experimental data: patent publication US20150346599A1, “PHOTO-DESTROYABLE QUENCHER AND ASSOCIATED PHOTORESIST COMPOSITION, AND DEVICE-FORMING METHOD” (Rohm and Haas Electronic Materials LLC, priority 2014, published 2015)

How the values were obtained:
[1] = Water absorption (hygroscopicity): water weight gain of the solid; type: physicochemical; conditions: for Weight Gain relative to Reference (%): 1 millimole solid in open vial in 4 liter vessel with 100 milliliters exposed water, 18 hours, reference triphenylsulfonium camphorsulfonate; for Matter State After Exposure to Water: after 18 hours exposure to water vapour
Protocol: Compounds that absorb atmospheric moisture may cause inaccurate amount additions into formulations and are also difficult to handle. […] To quantify this characteristic, 1 millimole of each solid was placed in an open vial and enclosed in a 4 liter vessel containing 100 milliliters of exposed water. The weight of each vial was prerecorded and reweighed 18 hours later to determine the water weight gain.

[2] = Shelf life testing: compound stability in solution by 1H NMR peak integration; conditions: 100 millimolar in deuterated dimethylsulfoxide; for Compound Purity (%) 0 days / Compound Purity (%) 3 days / Compound Purity (%) 14 days: 1H NMR at 25° C.
Protocol: Compound stability was monitored by peak integration using ^1H NMR at 25° C. with relaxation delay set to 5 seconds on a 300 Megahertz Varian NMR spectrometer. Compound purity was calculated using the following formula: 100−((sum impurity peaks)/((total impurity peaks)+(total purity peaks))*100).

| Compound | Weight Gain relative to Reference (%) [1] | Matter State After Exposure to Water [1] | Matter State Before Exposure to Water [1] | Hygroscopicity (in words) [1] | Compound Purity (%) 0 days [2] | Compound Purity (%) 3 days [2] | Compound Purity (%) 14 days [2] | Compound stability (in words) ([2]; up to 14 days) |
| --- | --- | --- | --- | --- | --- | --- | --- | --- |
| 5-(4-(tert-Butyl)phenyl)-5H-dibenzo[b,d]thiophen-5-ium 2,3,4,5,6-pentafluorophenolate [Example 5] | −29% | Solid | Solid |  |  |  |  |  |
| 5-Phenyl-5H-dibenzo[b,d]thiophen-5-ium 2,3,4,5,6-pentafluorophenolate [Example 2] | 43% | Solid | Solid | hygroscopic |  |  |  |  |
| 5-Phenyl-5H-dibenzo[b,d]thiophen-5-ium 2,3,5,6-tetrafluorophenolate [Example 3] | 29% | Solid | Solid |  |  |  |  |  |
| 5-Phenyl-5H-dibenzo[b,d]thiophen-5-ium 3,5-bis(trifluoromethyl)-phenolate [Example 4] | −14% | Solid | Solid |  |  |  |  |  |
| Cc1cc(-[s+]2c3ccccc3c3ccccc32)cc(C)c1OCC(=O)OC1(C)C2CC3CC(C2)CC1C3.[O-]c1c(F)c(F)c(F)c(F)c1F [Example 6, 5-(3,5-Dimethyl-4-(2-(((1R,3S,5r,7r)-2-methyladamantant-2-yl)oxy)-2-oxoethoxy)phenyl)-5H-dibenzo[b,d]thiophen-5-ium 2,3,4,5,6-pentafluorophenolate] | −43% |  | Solid |  |  |  |  |  |
| Triphenylsulfonium pentafluorophenolate [Example 1] | 29% |  | Solid |  | 100% | 100% | 100% | substantially more stable than triphenylsulfonium phenolate |
| triphenylsulfonium camphorsulfonate [reference compound] |  | Solid | Solid |  | 100% | 100% | 100% |  |
